# Source: patent publication US7691844B2, “Nonpeptide substituted spirobenzoazepines as vasopressin antagonists” (Ortho-McNeil Pharmaceutical, Inc., priority 2000, dated 2010)
# Tests used:
# V1a [1] = molecular target: T1, V1a (Homo sapiens, UniProt P37288); experiment: In-vitro receptor binding assay (3H-arginine-8-vasopressin), V1a
# How it was run: (§1)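 Radioligand is 3H-arginine-8-vasopressin, incubated with receptor for one hour at room temperature, then filtered on GF/C plates and counted by scintillation. Non-specific binding was defined with 1.25 μM vasopressin, and results are given as % inhibition.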
# human V2 receptor = human V2 receptor (Homo sapiens, UniProt P30518); experiment: In-vitro receptor binding assay (3H-arginine-8-vasopressin), V2
# Sequence of human V2 receptor (P30518 whole entry): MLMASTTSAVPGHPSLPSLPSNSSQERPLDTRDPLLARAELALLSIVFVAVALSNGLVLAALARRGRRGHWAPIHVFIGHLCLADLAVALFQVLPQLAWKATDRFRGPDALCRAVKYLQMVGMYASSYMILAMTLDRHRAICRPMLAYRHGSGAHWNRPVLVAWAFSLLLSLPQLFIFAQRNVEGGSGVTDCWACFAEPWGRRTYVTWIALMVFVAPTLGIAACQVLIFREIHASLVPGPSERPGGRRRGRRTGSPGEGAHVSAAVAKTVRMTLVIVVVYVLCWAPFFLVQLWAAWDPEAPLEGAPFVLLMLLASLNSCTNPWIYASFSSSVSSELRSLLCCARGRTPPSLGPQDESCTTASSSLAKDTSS
# How it was run: as §1
# V1a [2] = molecular target: T1, V1a; experiment: V1a vasopressin receptor functional activity (inhibition of vasopressin-induced intracellular calcium, FLIPR, V1a-HEK cells); type: cell-based; design: expressed in transfected cells; conditions: HEK-293 cells transfected with human V1a receptor; vasopressin challenge
# Description: [formula] (B) V1a Vasopressin Receptor Functional Activity
# The V1a receptor is a G-protein coupled receptor, which upon activation triggers an increase in intracellular calcium mobilization. To evaluate compounds for their functional V1a receptor activity, HEK-293 cells were transfected with the human V1a receptor (V1a-HEK cells). HEK-293 cells were grown in DMEM (Dulbecco's modified Eagle Media) supplemented with 10% FBS and glutamine. HEK-cells were passed biweekly by trypsinization and seeded into 96 well plates at 33,000 cells per well. HEK-293 cells were transfected with human V1a receptor DNA using DMRIE-C reagent from Life Technologies. Stable lines were generated by selecting cells grown in culture media containing geneticin. After growing in Packard Clear-View black 96 well plates for 4-6 days, V1a-HEK cells were loaded with the calcium-sensitive fluorescence dye, FLUO-3 AM. Changes in cell fluorescence were quantitated using FLIPR (Fluorometric Imaging Plate Reader; Molecular Devices, Sunnyvale, Calif.). Test compounds were first added to the cells and the resulting changes in fluorescence measured to detect receptor agonistic activity. Five minutes later the cells were challenged with vasopressin to test compounds for their antagonistic activity. Receptor antagonists inhibit the ability of vasopressin to stimulate increases in intracellular fluorescence. IC50's were calculated.
# [3] = read-out: Receptor Binding V2 (% Inh. @ concentration in μM)
# [4] = @ 1 μM, read-out: Receptor Binding V2 (% Inh. @ concentration in μM)
# [5] = @ 10 μM, read-out: Receptor Binding V2 (% Inh. @ concentration in μM)
# T1 sequence (P37288 whole entry): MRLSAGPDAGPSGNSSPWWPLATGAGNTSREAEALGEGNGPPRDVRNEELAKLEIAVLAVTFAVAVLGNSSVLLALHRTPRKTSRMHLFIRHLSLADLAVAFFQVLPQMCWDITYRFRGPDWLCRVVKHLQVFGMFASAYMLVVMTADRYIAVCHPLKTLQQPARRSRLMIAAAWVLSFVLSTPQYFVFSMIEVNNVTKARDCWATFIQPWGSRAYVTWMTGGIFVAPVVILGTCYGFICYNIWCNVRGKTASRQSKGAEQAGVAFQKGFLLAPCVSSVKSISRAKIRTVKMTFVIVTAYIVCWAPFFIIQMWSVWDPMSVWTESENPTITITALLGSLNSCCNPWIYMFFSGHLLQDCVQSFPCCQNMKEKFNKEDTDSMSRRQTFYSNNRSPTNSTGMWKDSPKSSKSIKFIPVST
Structure (SMILES),IC50 (V1a [1]),IC50 (human V2 receptor),IC50 (V1a [2]),also measured
O=C(Nc1ccc(C(=O)N2CCC3(C=CCCC3)Cc3ccccc32)c(Cl)c1)c1ccccc1F (centres unmarked) [Compound 110],0.9 µM,1 µM,2.57 µM,
CCCCOc1ccc(C(=O)N2CCC3(C=CCCC3)Cc3ccccc32)cc1 (centres unmarked) [Compound 53],0.06 µM,8 µM,0.104 µM,
N#Cc1ccc(C(=O)N2CCC3(C=CCCC3)Cc3ccccc32)cc1 (centres unmarked) [Compound 33],0.13 µM,,> 1 µM,
COc1ccc(C(=O)N2CCC3(C=CCCC3)Cc3ccccc32)cc1 (centres unmarked) [Compound 37],0.11 µM,,0.096 µM,Receptor Binding V2 (% Inh. @ concentration in μM) (human V2 receptor; @ 10 μM): 37% @ 10
O=C(Nc1ccccc1)c1ccc(C(=O)N2CCCC3(C=CCCC3)c3ccccc32)cc1 (centres unmarked) [Compound 27],0.1 µM,0.27 µM,0.008 µM,
CCNc1ccc(C(=O)N2CCC3(CCCCC3)Cc3ccccc32)cc1 [Compound 26],0.16 µM,10 µM,0.105 µM,
"O=C(Nc1ccc(C(=O)N2CCC3(C=CCCC3)Cc3ccccc32)cc1)c1ccccc1-c1ccccc1 (centres unmarked) [Compound 66, 4-(2-Phenylbenzoyl-4-aminobenzoyl)-4-aza-[6,5]-spiro-[5,6]-benzododec-2′-ene]",0.83 µM,0.19 µM,0.025 µM,
O=C(c1ccc(Cl)c(Cl)c1)N1CCC2(C=CCCC2)Cc2ccccc21 (centres unmarked) [Compound 48],,,> 1 µM,"inhibition at 10 µM (V1a [1]; @ 10 μM, read-out: Receptor Binding V1a (% Inh. @ concentration in μM)): 33%; inhibition at 10 µM (human V2 receptor; [5]): 16%"
"COC(=O)c1ccc(C(=O)N2CCC3(C=CCCC3)Cc3ccccc32)cc1 (centres unmarked) [Compound 54, 4-(4-Carbomethoxybenzoyl)-4-aza-[6,5]-spiro-[5,6]-benzododec-2′-ene]",0.33 µM,10 µM,0.067 µM,
"CC(=O)N1CCC(Oc2ccc(C(=O)N3CCC4(C=CCCC4)Cc4ccccc43)cc2)CC1 (centres unmarked) [Compound 224, 4-(4-(N-acetylpiperidin-4-yloxy)benzoyl)-4-aza-[6,5]-spiro-[5,6]-benzododec-2′-ene]",,,,"inhibition at 0.1 µM (V1a [1]; @ 0.1 μM, read-out: Receptor Binding V1a (% Inh. @ concentration in μM)): 41%; Receptor Binding V2 (% Inh.) (human V2 receptor; concentration not given): 0%"
COc1cc(N)ccc1C(=O)N1CCC2(C=C(C(=O)NCCN(C)C)CC2)Cc2ccccc21 (centres unmarked) [Compound 194],,,,"inhibition at 1 µM (V1a [1]; @ 1 μM, read-out: Receptor Binding V1a (% Inh. @ concentration in μM)): 7%; inhibition at 1 µM (human V2 receptor; [4]): 6%"
CN(C)c1ccc(C(=O)N2CCC3(C=CCCC3)Cc3ccccc32)cc1 (centres unmarked) [Compound 60],0.051 µM,,,Receptor Binding V2 (% Inh. @ concentration in μM) (human V2 receptor; @ 1 μM): 14% @ 1
CN(C)c1ccc(C(=O)N2CCC3(C=CCCC3)Cc3ccccc32)cc1 (centres unmarked) [Compound 45],0.11 µM,10 µM,,
CCOC(=O)C1=CC2(CC1)CCN(C(=O)c1ccc(NC(=O)c3ccccc3C)cc1)c1ccccc1C2 (centres unmarked) [Compound 162],0.069 µM,,,"inhibition at 0.25 µM (human V2 receptor; @ 0.25 μM, read-out: Receptor Binding V2 (% Inh. @ concentration in μM)): 42%"
O=C(c1cccc(C(F)(F)F)c1)N1CCC2(C=CCCC2)Cc2ccccc21 (centres unmarked) [Compound 56],4.3 µM,,,inhibition at 10 µM (human V2 receptor; [5]): 0%

# Continued by falling IC50 (V1a [1]), values first:
IC50 (V1a [1]),IC50 (human V2 receptor),IC50 (V1a [2]),Structure (SMILES),also measured
0.041 µM,,0.08 µM,Cc1cc(F)ccc1C(=O)Nc1ccc(C(=O)N2CCC3(C=CCCC3)Cc3ccccc32)cc1 (centres unmarked) [Compound 99],inhibition at 1 µM (human V2 receptor; [4]): 35%
0.037 µM,0.014 µM,0.02 µM,"O=C(O)C1=CC2(CC1)CCN(C(=O)c1ccc(NC(=O)c3ccccc3-c3ccccc3)cc1)c1ccccc1C2 (centres unmarked) [Compound 4, 4-(2-Phenylbenzoyl-4-aminobenzoyl)-3′ (carboxyl)-4-aza-[6,4]-spiro-[5,6]-benzoundec-2′-ene]",
0.027 µM,0.2 µM,,Cc1ccccc1NC(=O)c1ccc(C(=O)N2CCC3(C=CCCC3)Cc3ccccc32)cc1 (centres unmarked) [Compound 98],
0.02 µM,0.022 µM,< 0.01 µM,"CC(=O)N(C)CC1=CC2(CC1)CCN(C(=O)c1ccc(NC(=O)c3ccccc3-c3ccccc3)cc1)c1ccccc1C2 (centres unmarked) [Compound 5, 4-(2-Phenylbenzoyl-4-aminobenzoyl)-3′-(N-methyl-N-acetylaminomethyl)-4-aza-[6,4]-spiro-[5,6]-benzoundec-2′-ene]",
0.019 µM,,,COc1cc(NC(=O)c2ccccc2F)ccc1C(=O)N1CCC2(C=CCCC2)Cc2ccccc21 (centres unmarked) [Compound 115],inhibition at 0.1 µM (human V2 receptor; [3]): 37%
0.016 µM,,,COc1cc(C(=O)N2CC[C@@]3(C=C(C(=O)NCCN(C)C)CC3)Cc3ccccc32)ccc1-n1ccc(CO)c1 [Compound 198],inhibition at 0.1 µM (human V2 receptor; [3]): 0%
0.014 µM,,0.227 µM,O=C(NCCN1CCOCC1)C1=CC2(CC1)CCN(C(=O)c1ccc(NC(=O)c3ccccc3F)cc1)c1ccccc1C2 (centres unmarked) [Compound 17],inhibition at 0.1 µM (human V2 receptor; [3]): 18%
0.01 µM,0.07 µM,0.14 µM,Cc1ccccc1C(=O)Nc1ccc(C(=O)N2CCC3(C=CCCC3)Cc3ccccc32)cc1 (centres unmarked) [Compound 69],
0.01 µM,0.55 µM,0.06 µM,"O=C(Nc1ccc(C(=O)N2CCC3(C=CCCC3)Cc3ccccc32)cc1)c1ccccc1F (centres unmarked) [Compound 101, 4-(2-Fluorobenzoyl-4-aminobenzoyl)-4-aza-[6,5]-spiro-[5,6]-benzododec-2′-ene]",
0.009 µM,0.018 µM,< 0.01 µM,"O=C(Nc1ccc(C(=O)N2CCC3(C=C(CO)CC3)Cc3ccccc32)cc1)c1ccccc1-c1ccccc1 (centres unmarked) [Compound 1, 4-(2-Phenylbenzoyl-4-aminobenzoyl)-3′-(hydroxymethyl)-4-aza-[6,4]-spiro-[5,6]-benzoundec-2′-ene]",
0.009 µM,0.018 µM,< 0.01 µM,"CNCC1=CC2(CC1)CCN(C(=O)c1ccc(NC(=O)c3ccccc3-c3ccccc3)cc1)c1ccccc1C2 (centres unmarked) [Compound 3, 4-(2-Phenylbenzoyl-4-aminobenzoyl)-3′-(methylaminomethyl)-4-aza-[6,4]-spiro-[5,6]-benzoundec-2′-ene]",
0.008 µM,0.067 µM,0.05 µM,Cc1cc(F)ccc1C(=O)Nc1ccc(C(=O)N2CCC3(C=CCCC3)Cc3ccccc32)cc1 (centres unmarked) [Compound 100],
0.007 µM,0.1 µM,0.135 µM,COC(=O)CNCC1=CC2(CC1)CCN(C(=O)c1ccc(NC(=O)c3cc(F)ccc3C)cc1)c1ccccc1C2 (centres unmarked) [Compound 15],
0.007 µM,,0.95 µM,O=C(NCCN1CCCCC1)C1=CC2(CC1)CCN(C(=O)c1ccc(NC(=O)c3ccccc3F)cc1)c1ccccc1C2 (centres unmarked) [Compound 18],inhibition at 0.1 µM (human V2 receptor; [3]): 23%
0.006 µM,0.011 µM,0.005 µM,O=C(NCCO)C1=CC2(CC1)CCN(C(=O)c1ccc(NC(=O)c3ccccc3-c3ccccc3)cc1)c1ccccc1C2 (centres unmarked) [Compound 6],
0.005 µM,0.018 µM,0.07 µM,Cc1ccc(F)cc1C(=O)Nc1ccc(C(=O)N2CCC3(C=C(C(=O)NCCN(C)C)CC3)Cc3ccccc32)cc1 (centres unmarked) [Compound 13],
0.005 µM,0.023 µM,0.059 µM,Cc1ccc(F)cc1C(=O)Nc1ccc(C(=O)N2CCC3(C=C(C(=O)NCCCN(C)C)CC3)Cc3ccccc32)cc1 (centres unmarked) [Compound 14],
